In assay [1] the target is neuraminidase (NA) of recombinant influenza B/Phuket/3073/2013 I222T virus (Influenza B virus, UniProt A0A1S5RAG6, I221T). It is filed as biochemical, influenza B/Phuket/3073/2013 virus.
In assay [2] the target is neuraminidase (NA) of recombinant influenza B/Phuket/3073/2013 D198E virus (Influenza B virus, UniProt A0A1S5RAG6, D197E). The format is biochemical, influenza B/Phuket/3073/2013 virus.
The target in assay [3] is neuraminidase (NA) of recombinant influenza B/Phuket/3073/2013 R152K virus (Influenza B virus, UniProt A0A1S5RAG6, R150K). The format is biochemical, influenza B/Phuket/3073/2013 virus.
In assay [4] the target is neuraminidase (NA) of recombinant influenza B/Phuket/3073/2013 N294S virus (Influenza B virus, UniProt A0A1S5RAG6, N294S). It is filed as biochemical, influenza B/Phuket/3073/2013 virus.
Assay [5] concerns the target neuraminidase (NA) of recombinant influenza B/Phuket/3073/2013 D198N virus (Influenza B virus, UniProt A0A1S5RAG6, D197N). It is filed as biochemical, influenza B/Phuket/3073/2013 virus.
For assay [6], the target named is neuraminidase (NA) of recombinant influenza B/Phuket/3073/2013 H136N virus (Influenza B virus, UniProt A0A1S5RAG6, H134N). It is filed as biochemical, influenza B/Phuket/3073/2013 virus.
Assay [7] has as its system B/Wyoming/07/2017 (B/Yamagata lineage) D198N variant. The note with it: cited from earlier work.
Setting [8] is: read-out: Neuraminidase Inhibitors IC50 values.

One may read the IC50 as the concentration at which inhibition is half-maximal.

In the case of `CCC(CC)[C@H](NC(C)=O)[C@@H]1[C@H](O)[C@@H](C(=O)O)C[C@H]1N=C(N)N` [Peramivir, peramivir], the “Folds (fold changes according to WT virus)” value in assay [1] amounted to 26 fold; in assay [2], 21 fold; in assay [3], 572 fold; in assay [4], 46 fold; in assay [5], 9 fold; in assay [6] it was 240 fold. The half-inhibitory concentration (IC50) in assay [1] (setting [8]) was determined as 19.5 nM; in assay [2] (setting [8]), 15.5 nM; in assay [3] (setting [8]), 423 nM; in assay [4] (setting [8]), 33.7 nM; in assay [5] (setting [8]) it was 6.92 nM; in assay [6] (setting [8]), 177 nM.

Turning to `CC(=O)N[C@H]1[C@H]([C@H](O)[C@H](O)CO)OC(C(=O)O)=C[C@@H]1N=C(N)N` [Zanamivir, zanamivir], in assay [7], the susceptibility phenotype entry is “susceptible”.
